Experimental data: US7842856B2, “Herbicide resistance gene, compositions and methods” (The Board of Trustees of the University of Illinois, priority 2005, dated 2010)

How the values were obtained:
[1] = tested on: Arabidopsis T1 seeds, PPX2L Resistant plasmid; test: T1 seed germination on herbicide-containing medium, PPX2L Resistant plasmid; assay type: in vivo, Arabidopsis thaliana; settings: for Number of Germinated Seedlings on Imazethapyr: approximately 1000 seeds
Protocol: (§1) Reverse transcription PCR (RT-PCR) products from resistant and sensitive biotypes were used as template for cloning the resistant and sensitive genes through PCR amplifications. These amplifications were performed using the ligation independent cloning (LIC) adapted oligonucleotide primers specific to PPX2L, P1 and P2, and cloned into the LIC site of a plant transformation vector, using techniques known to those skilled in the art. These primers used in these experiments were as follows: P1, […], SEQ ID NO:49; P2, […], SEQ ID NO:50; P3, […], SEQ ID NO:51; P4, […], SEQ ID NO:52; P5, […], SEQ ID NO:53; and P6, […], SEQ ID NO:54. These plant transformation vectors contained an imidazolinone tolerant Arabidopsis AHAS large subunit gene under the control of the actin promoter and octopine synthase terminator, which allowed selection on Pursuit (imazethapyr) for all transformants, especially for selection of lactofen […] transformants. For expression of the resistant and sensitive genes in Arabidopsis, the coding sequences for each resistant or sensitive gene were inserted after the parsley ubiquitin promoter and before the nopaline synthase terminator. Several clones each of susceptible and resistant PPX2L were obtained from different biotype isolates and each was sequenced.
(§2) Three vector plasmids were constructed: VC-MBW101-1, containing the susceptible version of the PPX2L gene (SEQ ID NO:47); VC-MBW102-1, containing the resistant version of the PPX2L gene (SEQ ID NO:25); and VC-MBW103-1, containing the SRS version of the PPX2L gene (SEQ ID NO:45); All three of these plasmids were transformed into Agrobacterium tumefaciens. as follows:
(§3) For the transformation, 6-week-old Arabidopsis plants, which had just started flowering were immersed for 10 seconds into the above-described agrobacterial suspension which had previously been treated with 10 μl Silwett L77 (Crompton S. A., Osi Specialties, CH). The method is described in Clough and Bent. 1998. Plant J. 16:735-743.
(§4) These T1 generation seeds, which represented a collection of a few transformed seeds in a population of untransformed seeds, were sterilized by liquid sterilization (rinsing in a solution of 400 mL of ddH2O+100 mL of bleach+250 uL of 20% SDS, followed by rinsing in sterile distilled water).
(§5) These T1 seeds were put into 0.8% agarose and plated onto MS media with 1% sucrose, Cefotaxmine (500 ug/mL) and benomyl (2 ug/mL). For selection of transformants, these contained either 100 nM Pursuit (imazethapyr), 70 nM Cobra (lactofen) or 125 nM Cobra. Arabidopsis ecotype Columbia-0 (Co10) was also plated as a control on all types of plates and the imidazolinone tolerant mutant csr1-2 was plated on Pursuit plates as a positive control. The seeds were stratified on the plates for three days at 4° C.
(§6) The plates were then incubated in a Percival Scientific (Perry, Iowa) growth chamber at 21-22° C. and 15 hours of light for six days and scored for viable seedlings on the selective plates.
(§7) The numbers of seeds were the raw counts of actual seeds on the selection plates. The numbers of seedlings were the number of green seedlings found on each plate, indicative of resistance to the selective agent (lactofen or imazethapyr). If there were no seedlings, there were no resistant plants. Only the “resistant” forms of PPX2L conferred lactofen tolerance, confirming that the isolated PPX2L coding sequence from the herbicide resistant waterhemp was sufficient to confer the PPO-inhibiting herbicide resistance phenotype on transgenic plants into which the plant expressible sequence was introduced. Plants obtained from the imazethapyr selection indicated the presence of transformed seeds with the sensitive form of PPX2L. Without wishing to be bound by any particular theory, the single seedling on transformation set 5 is believed to have been a stray resistant transformant.

[2] = tested on: Arabidopsis T1 seeds, PPX2L "SRS" plasmid; test: T1 seed germination on herbicide-containing medium, PPX2L SRS plasmid; assay type: in vivo, Arabidopsis thaliana; settings: for Number of Germinated Seedlings on Imazethapyr: approximately 1000 seeds
Protocol: as §1
In addition, a chimeric “SRS” gene (see SEQ ID NO:45), which has the 5′ end of the susceptible coding sequence up to the unique XhoI site, the internal XhoI to DraIII fragment of the resistant coding sequence containing the resistance mutation, and the 3′ end of the susceptible from the unique DraIII site to the stop codon, was produced by amplifying sensitive RT-PCR template with P1 and P3 as well as with P6 and P2. Resistant template was also amplified with P4 and P5. These amplicons were digested with XhoI and DraIII and purified, then ligated. The ligation reaction was cloned into the LIC site of the plant transformation vector, as above.
as §2, §3, §4, §5, §6
The numbers of seeds were the raw counts of actual seeds on the selection plates. The numbers of seedlings were the number of green seedlings found on each plate, indicative of resistance to the selective agent (lactofen or imazethapyr). If there were no seedlings, there were no resistant plants. […]

[3] = tested on: Arabidopsis Columbia-0 (untransformed control); test: Seed germination on herbicide-containing medium, untransformed control; assay type: in vivo, Arabidopsis thaliana
Protocol: as §5, §6, §7

[4] = tested on: Arabidopsis T1 seeds, PPX2L Susceptible plasmid; test: T1 seed germination on herbicide-containing medium, PPX2L Susceptible plasmid; assay type: in vivo, Arabidopsis thaliana; settings: for Number of Germinated Seedlings on Imazethapyr: approximately 1000 seeds
Protocol: as §1, §2, §3, §4, §5, §6, §7

[5] = tested on: A. tuberculatus S (susceptible) parent; test: Herbicide dose-response on whole plants, S parent; assay type: in vivo, Amaranthus tuberculatus (waterhemp); settings: S line

Compound: CCc1cnc(C2=NC(C)(C(C)C)C(=O)N2)c(C(=O)O)c1 (centres unmarked) [Imazethapyr]
- Number of Germinated Seedlings on Imazethapyr ([1]; transformation set 1, 100 nM Pursuit): 9
- Number of Germinated Seedlings on Imazethapyr ([1]; transformation set 2, 100 nM Pursuit): 9
- Number of Germinated Seedlings on Imazethapyr ([1]; transformation set 3, 100 nM Pursuit): 6
- Number of Germinated Seedlings on Imazethapyr ([2]; transformation set 4-390, 100 nM Pursuit): 10
- Number of Germinated Seedlings on Imazethapyr ([2]; transformation set 4-414, 100 nM Pursuit): 11
- Number of Germinated Seedlings on Imazethapyr ([3]; 100 nM Pursuit, approximately 1000 seeds): 0
- Number of Germinated Seedlings on Imazethapyr ([4]; transformation set 4-291, 100 nM Pursuit): 4
- Number of Germinated Seedlings on Imazethapyr ([4]; transformation set 5, 100 nM Pursuit): 12

Compound: CCOC(=O)C(C)OC(=O)c1cc(Oc2ccc(C(F)(F)F)cc2Cl)ccc1[N+](=O)[O-] (racemic) [Lactofen, (±)-2-ethoxy-1-methyl-2-oxoethyl 5-{2-chloro-4-(trifluoromethyl)phenoxy}-2-nitrobenzoate]
- Calculated Number of Germinated Seedlings per 1000 Seeds for both rates of Lactofen ([1]; transformation set 1): 7
- Number of Germinated Seedlings on 125 nM Lactofen ([1]; transformation set 1, 560 seeds plated): 4
- Number of Germinated Seedlings on 70 nM lactofen ([1]; transformation set 1, 640 seeds plated): 4
- Calculated Number of Germinated Seedlings per 1000 Seeds for both rates of Lactofen ([1]; transformation set 2): 3
- Number of Germinated Seedlings on 125 nM Lactofen ([1]; transformation set 2, 1152 seeds plated): 4
- Number of Germinated Seedlings on 70 nM lactofen ([1]; transformation set 2, 1276 seeds plated): 3
- Calculated Number of Germinated Seedlings per 1000 Seeds for both rates of Lactofen ([1]; transformation set 3): 2
- Number of Germinated Seedlings on 70 nM lactofen ([1]; transformation set 3, 980 seeds plated): 3
- Number of Germinated Seedlings on 125 nM Lactofen ([1]; transformation set 3, 1664 seeds plated): 1
- GR50 (growth reduction by 50%) S ([5]; 10 DAT): 0.2 g ai ha^−1
- GR50 (growth reduction by 50%) S ([5]; 15 DAT): 0.4 g ai ha^−1
- Calculated Number of Germinated Seedlings per 1000 Seeds for both rates of Lactofen ([2]; transformation set 4-390): 9
- Number of Germinated Seedlings on 125 nM Lactofen ([2]; transformation set 4-390, 1160 seeds plated): 6
- Number of Germinated Seedlings on 70 nM lactofen ([2]; transformation set 4-390, 1176 seeds plated): 14
- Calculated Number of Germinated Seedlings per 1000 Seeds for both rates of Lactofen ([2]; transformation set 4-414): 5
- Number of Germinated Seedlings on 125 nM Lactofen ([2]; transformation set 4-414, 880 seeds plated): 2
- Number of Germinated Seedlings on 70 nM lactofen ([2]; transformation set 4-414, 1036 seeds plated): 7
- Calculated Number of Germinated Seedlings per 1000 Seeds for both rates of Lactofen [3]: 0
- Number of Germinated Seedlings on 125 nM Lactofen ([3]; 600 seeds plated): 0
- Number of Germinated Seedlings on 70 nM lactofen ([3]; 884 seeds plated, six days): 0
- Calculated Number of Germinated Seedlings per 1000 Seeds for both rates of Lactofen ([4]; transformation set 4-291): 0
- Number of Germinated Seedlings on 70 nM lactofen ([4]; transformation set 4-291, 500 seeds plated): 0
- Number of Germinated Seedlings on 125 nM Lactofen ([4]; transformation set 4-291, 680 seeds plated): 0
- Calculated Number of Germinated Seedlings per 1000 Seeds for both rates of Lactofen ([4]; transformation set 5): 1
- Number of Germinated Seedlings on 70 nM lactofen ([4]; transformation set 5, 460 seeds plated): 1
- Number of Germinated Seedlings on 125 nM Lactofen ([4]; transformation set 5, 764 seeds plated): 0

Compound: O=C(O)c1cc(Oc2ccc(C(F)(F)F)cc2Cl)ccc1[N+](=O)[O-] [Acifluorfen, 5-{2-chloro-4-(trifluoromethyl)phenoxy}-2-nitrobezoic acid]
- GR50 (growth reduction by 50%) S ([5]; 10 DAT): 1.6 g ai ha^−1
